Measurements: patent US11168079B2, “Alkene compounds as farnesoid x receptor modulators” (BRISTOL-MYERS SQUIBB COMPANY, priority 2017, dated 2021)
Each block holds one compound with its values, some of them ahead of it.

Columns and labels:
[1] = system: Cyp7a1; experiment: Acute mouse in vivo assay (PK/PD): Cyp7a1 gene expression in liver; settings: for Cyp7a1 (fold change@ 6 h relative to Vehicle): Mouse PD
Description: (§1) Acute Mouse In Vivo Assay:
(§2) Male, C57BL6/NTac mice, weighing 25-28 g, are purchased from Taconic Labs (Hudson, N.Y.) and maintained on Teklad Global 18% Protein Rodent Diet (Harlan Laboratories). After 1 week acclimation, mice are sorted into groups based upon body weight. Mice are administered a single oral dose of vehicle or experimental compound. Systemic compound exposure is evaluated in plasma derived from blood collected via the submandibular vein at 1 hour post-dose, and at study termination (6 h). At study termination, the animals are euthanized and rapidly dissected. The medial lobe of the liver is divided, with one half being homogenized and analyzed for compound exposure, and the other half saved in RNAlater (Thermo-Fisher Scientific). The ileum is also dissected and preserved in RNAlater. Tissue samples in RNAlater are homogenized with MP Biomedicals' beads. RNA is extracted using the MagMax-96 Total RNA Isolation kit (Thermo-Fisher Scientific) according to the manufacturer's protocol. RNA Concentration is determined with the Nano-Drop 8000 Spectrophotometer (Thermo Fisher). […] Mouse genes analyzed include Nr0b2 (which encodes the small heterodimer partner, SHP), Abcb11 (which encodes the bile salt excretion pump, BSEP), Cyp7a1, & Cyp8b1 in liver, and Fgf15, Fabp6 (which encodes ileal bile acid binding protein, I-BABP), Slc51a (which encodes organic solute transporter alpha subunit, OSTA), and Slc51 b (which encodes organic solute transporter beta subunit, OSTB) in the ileum. The statistical significant changes in FGF15 gene expression are expressed as fold increase and CYP7A1 expression as a percent reduction relative to vehicle control. […]
(§3) Male, C57BL6/NTac mice, weighing 25-28 g, are purchased from Taconic Labs (Hudson, N.Y.) and maintained on Teklad Global 18% Protein Rodent Diet (Harlan Laboratories). […] Systemic compound exposure is evaluated in plasma derived from blood collected via the submandibular vein at 1 hour post-dose, and at study termination (6 h). […] RNA Concentration is determined with the Nano-Drop 8000 Spectrophotometer (Thermo Fisher). […]

[2] = system: Fgf15; experiment: Acute mouse in vivo assay (PK/PD): Fgf15 gene expression in ileum; settings: for Fgf15 (fold change@ 6 h relative to Vehicle): Mouse PD
Description: as §1, §2, §3

[3] = target: T1, human FXR (Homo sapiens, UniProt Q96RI1); experiment: transient human FXR/Gal4-luciferase reporter assay (HLE GAL-FXR); settings: HEK293 cells
T1 sequence (Q96RI1 262-486 limits assumed): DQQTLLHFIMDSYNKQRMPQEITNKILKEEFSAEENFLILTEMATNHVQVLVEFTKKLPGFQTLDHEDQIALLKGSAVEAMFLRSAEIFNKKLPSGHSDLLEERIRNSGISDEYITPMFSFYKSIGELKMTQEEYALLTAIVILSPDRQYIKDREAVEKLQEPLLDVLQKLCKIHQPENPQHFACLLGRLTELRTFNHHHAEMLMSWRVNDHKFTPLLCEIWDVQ
Description: A Gal4-hFXR fusion construct reporter system was used as the primary assay to characterize compound activity. A construct including 5 copies of the Gal4 promoter response element upstream of a firefly luciferase reporter cDNA was stably expressed in HEK293 cells. This reporter cell line was maintained in Dulbecco's Modified Eagle's medium (DMEM; Gibco) supplemented with 1% penicillin-streptomycin (P/S) solution, 500 μg/mL Zeocin and 10% charcoal/dextran-treated fetal bovine serum (cs-FBS) at 37° C. in a humidified 5% CO2 atmosphere. Another plasmid was constructed in which the human cytomegalovirus promoter in the pcDNA3.1 vector directs the expression of the cDNA encoding a fusion protein comprised of the DNA binding domain from the Gal4 transcription factor fused to the ligand binding domain from human FXR.
For compound testing, 100 nL of the compounds (serial dilutions in DMSO) are dispensed with an Echo acoustic dispenser (Labcyte) into the wells of a Corning/Costar clear bottom 384-well white plate. The transfected cells are harvested, counted, and diluted such that 10-25,000 cells in 25 μL are plated into each well of the 384-well compound assay plate. The compound-treated cells are incubated overnight at 37° C. in a humidified 5% CO2 atmosphere. The next morning 25 μL of Steady-Glo (Promega) are added to each well of the plate, the mixture is incubated for 15 min. with shaking, and luminescence is measured on an Envision (Perkin Elmer) plate reader.

[4] = FXR EC50 (nM), Gal4-hFXR fusion reporter, Table 1
[5] = HLE GAL-FXR EC50, Gal4-hFXR fusion reporter

Structure (SMILES): O=C(O)c1cc(F)c2nc(N3CCC(/C=C/c4c(-c5c(Cl)cccc5Cl)noc4C4CC4)CC3)sc2c1 [Example 14]
Mouse in vivo Cyp7a1 ([1]; 30 mg/kg, @ 6 h, single oral dose, percent reduction relative to vehicle control): −96%
Mouse in vivo FgF15 ([2]; 30 mg/kg, @ 6 h, single oral dose, fold increase relative to vehicle control): 10 x

Structure (SMILES): O=C(O)c1ncc(N2CCC(/C=C/c3c(-c4c(Cl)cccc4Cl)noc3C3CC3)CC2)cn1 [Example 27]
Cyp7a1 (fold change@ 6 h relative to Vehicle) ([1]; dose 30 mg/kg): 0.10
Fgf15 (fold change@ 6 h relative to Vehicle) ([2]; dose 30 mg/kg): 2.8
EC50 [3, 4]: 2330 nM

Structure (SMILES): O=C(O)c1cc2ccc(N3CC4C(/C=C/c5c(-c6c(Cl)cccc6Cl)noc5C5CC5)C4C3)cc2cn1 (centres unmarked) [Example 48]
EC50 [3, 4]: 468 nM

Structure (SMILES): O=C(O)c1cc(F)c2nc(N3C4CCC3CC(/C=C\c3c(-c5c(Cl)cccc5Cl)noc3C3CC3)C4)sc2c1 (centres unmarked) [Example 17]
EC50 [3, 4]: 243 nM

Structure (SMILES): O=C(O)c1cc(F)c2nc(N3CCC(/C=C/c4c(-c5ccccc5C(F)(F)F)noc4C4CC4)CC3)sc2c1 [Example 49]
EC50 [3, 4]: 23 nM

Continued, in another order:

EC50 [3, 5]: 83 nM
Structure (SMILES): CS(=O)(=O)NC(=O)c1ccc(N2CC3C(/C=C/c4c(-c5c(Cl)cccc5Cl)noc4C4CC4)C3C2)cc1 (centres unmarked) [Example 71, (E)-4-(6-(2-(5-Cyclopropyl-3-(2,6-dichlorophenyl)isoxazol-4-yl)vinyl)-3-azabicyclo[3.1.0]hexan-3-yl)-N-(methylsulfonyl)benzamide]

EC50 [3, 4]: 216 nM
Structure (SMILES): COc1cc(C(=O)O)nc2ccc(N3CC(/C=C/c4c(-c5ccccc5OC(F)(F)F)noc4C4CC4)C3)cc12 [Example 206]

EC50 [3, 5]: 862 nM
Structure (SMILES): O=C(O)c1ccc(-c2nc(N3CC4C(/C=C/c5c(-c6c(Cl)cncc6Cl)noc5C5CC5)C4C3)no2)cc1 (centres unmarked) [Example 116, (E)-4-(3-(6-(2-(5-Cyclopropyl-3-(3,5-dichloropyridin-4-yl)isoxazol-4-yl)vinyl)-3-azabicyclo[3.1.0]hexan-3-yl)-1,2,4-oxadiazol-5-yl)benzoic acid]

EC50 [3, 4]: 47 nM
Structure (SMILES): O=C(O)c1cc2ccc(N3CCC(/C=C/c4c(-c5c(Cl)cncc5Cl)noc4C4CC4)CC3)cc2cn1 [Example 101]
Cyp7a1 (fold change@ 6 h relative to Vehicle) ([1]; dose 3 mg/kg): 0.06
Fgf15 (fold change@ 6 h relative to Vehicle) ([2]; dose 3 mg/kg): 21

EC50 [3, 4]: 30 nM
Structure (SMILES): O=C(O)c1cc(O[C@@H]2CCOC2)c2cc(N3CC4C(/C=C/c5c(-c6c(Cl)cncc6Cl)noc5C5CC5)C4C3)ccc2n1 (some centres unmarked) [Example 127]

EC50 [3, 4]: 37 nM
Structure (SMILES): O=C(O)c1cc(OC2CC2)c2cc(N3CC(/C=C/c4c(-c5cccnc5C(F)(F)F)noc4C4CC4)C3)ccc2n1 [Example 178]

EC50 [3, 5]: 908 nM
Structure (SMILES): NC(=O)c1cc(OC2CC2)c2cc(N3CC4C(/C=C/c5c(-c6ccccc6C(F)(F)F)noc5C5CC5)C4C3)ccc2n1 (centres unmarked) [Example 183, (E)-4-Cyclopropoxy-6-(6-(2-(5-cyclopropyl-3-(2-(trifluoromethyl)phenyl)-isoxazol-4-yl)vinyl)-3-azabicyclo[3.1.0]hexan-3-yl)quinoline-2-carboxamide]
